We go through 16 compounds from patent publication US20220144823A1, “PYRAZOLOPYRIDINE DERIVATIVES AS INHIBITORS OF PASK” (Galapagos NV, priority 2019, published 2022).

The structures appear in SMILES notation. pIC50: −log10 of the molar value. A value given as a limit tells only on which side of the number the result lay.

The target in assay [1] is T1, human PASK (Homo sapiens, UniProt Q96RG2).
T1 construct: purchased ThermoFisher Scientific PR7013A
As to the kind of experiment: ADP-Glo kinase assay. In kind it is biochemical. To be noted: ADPGlo PASK kinase assay, 25 μM ATP, ZIPtide 25 μM. The gist of the method: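 Human recombinant PASK phosphorylating ZIPtide peptide with ATP, 120 min at RT; compounds in 10-point 1/5 dilution series, 1% DMSO final. ADP formed measured by ADP-Glo luminescence after ATP depletion; percent inhibition fitted to dose-response curves for averaged IC50.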

In assay [2] the target is T1, human PASK. As to the kind of experiment: 33P radioactive kinase assay. Format: biochemical. Conditions: 33P radioactive PASK kinase assay, 10 μM ATP, ZIPtide 1 μM. Here is the method: The principle of the ^33P radioactive kinase assay consists in measuring the incorporated ^33P into the ZIPtide peptide substrate when phosphorylated by human PASK using [^33P]-[…]-ATP and ATP, which correlates with kinase activity.
The test compounds are prepared as a serial dilution of 10 point dose responses with 1/5 dilution steps in 100% DMSO starting from 0.2 or 2 mM highest concentration, diluted 1/20 in water and 5 μL is transferred to the assay plates (Greiner, Cat #651201).
1% DMSO and 10 μM staurosporine final concentrations are used respectively as negative and positive controls.
11 μL of enzyme-substrate mixture is added on the assay plates. The reactions are started by adding 9 μL ATP mixture, consisting of non-labeled and ^33P-labeled ATP, on the assay plates.
The reactions are stopped by adding 25 μL phosphoric acid (150 mM) to the reactions.
The completely terminated kinase reactions are transferred using a harvester on pre-wetted UniFilter-96 plates (UniFilter-96 GF/B, PerkinElmer Inc., Cat #6005177).
After harvesting the kinase reactions, the filter plates are washed 6 times with phosphoric acid (75 mM). The back of the UniFilter-96 plates are sealed and 40 μL MicroScint-20 (PerkinElmer Inc., Cat #6013621) is added to each well. The top of each plate is sealed with TopSeal-A (PerkinElmer Inc., Cat #6050185). Read-out is performed with a TopCount instrument (PerkinElmer Inc.).
Raw data are generated following the read-out performed on the TopCount, used to calculate percentage inhibition (PIN) values and plotted to generate dose response curves and derive the average half maximal inhibitory concentrations (IC50) reported in Table VI.

Assay [3] has as its target T2, autophosphorylation of PASK at position Thr307 in Hek293 cells overexpressing PASK (Homo sapiens, UniProt Q96RG2).
T2 construct: expressed in transfected cells; host or cells: Hek293
Nature of the assay: PASK autophosphorylation ELISA assay. Format: cell-based. Conditions: 24 h, ELISA readout. As to the method: The compounds of the invention are profiled in a cellular assay to determine their capacity to reduce the autophosphorylation levels of PASK at position Thr307 in Hek293 cells overexpressing PASK, using an ELISA-based readout.
At day 1, a 96-well cell assay plate is coated with poly-D-lysine (50 μL/well of a 0.05 mg/mL solution in PBS) and incubated for 1 h at 37° C. The plate is subsequently washed once with PBS and stored dry at RT until further use. Hek293 cells are transfected with a pcDNA3.1-PASK(FL,WT)-FLAG construct (SEQ ID1) and seeded in culture medium (DMEM+10% FBS) in a poly-D-lysine coated 96-well plate (0.3 μL JetPEI DNA transfection reagent (Polyplus-transfection SA, Cat #101-40), 10 ng construct and 90 ng pBluescript, 60000 cells per well). […] The cell plate is incubated overnight at 37° C., 5% CO2.
At day 2, the medium of the assay plate is removed and 100 μL of fresh medium (DMEM+10% FBS) is added to the plate. Cell plate is further incubated overnight at 37° C., 5% CO2. This to allow further expression of PASK protein.
At day 3, the medium is removed and replaced with 100 μL of serum free medium (DMEM). Test compound is added to the plate (8 points concentration curve with 1/3 dilution steps starting from 30 μM final concentration in 0.3% DMSO final). In the positive and negative control wells of the plate, 0.3% DMSO final is added. For each tested condition, duplicates are made for ELISA readout. Cell plate is incubated 24 h at 37° C., 5% CO2.
At day 4, the medium is removed and the plate is washed once with 100 μL/well PBS. Cells are lysed by adding 50 μL/well western blot lysis buffer (20 mM Tris pH 7.5, 150 mM NaCl and 1% Triton) to the plate. The assay plate is stored at −80° C. and thawed to perform the ELISA readout.
At day 1, the ELISA plate is coated with the mouse anti-FLAG antibody (2 μg/mL diluted in PBS, 100 μL/well) and incubated overnight at 4° C.
At day 2, the plate is washed once with 150 μL/well PBS. 200 μL/well blocking buffer (PBS with 3% BSA) is added and the plate is incubated for 4 h at RT. The plate is washed with 150 μL/well high salt washing buffer (20 mM Na2HPO4, 0.5% Triton X-100, 0.1% SDS, 0.1% BSA and 1 M NaCl) followed by one wash with 150 μL/well low salt washing buffer (20 mM Na2HPO4, 0.5% Triton X-100, 0.1% SDS, 0.1% BSA and 150 mM NaCl). Meanwhile, the cell lysate plate is thawed, two wells of the same condition are pooled (2×50 μL) and added to the ELISA plate. The ELISA plate is incubated overnight at 4° C.
At day 3, the ELISA plate is washed twice with 150 μL/well high salt washing buffer followed by two washes with low salt washing buffer. 100 μL/well detection antibody for pPASK (phospho-Akt substrate (RXXS*/T*) (110B7E) rabbit antibody (Cell Signaling Technology, Inc., Cat #9614) 2 μg/mL diluted in PBS with 3% BSA and 1×Halt™ protease and phosphatase inhibitor cocktail (Thermo Fisher Scientific, Inc., Cat #78447)) is added and incubated for 2 h at RT. The plate is washed twice with high and low salt wash buffer (150 μL/well) and 100 μL/well of an HRP antibody (swine anti-rabbit HRP antibody (Agilent Technologies, Inc., Cat #P039901) diluted 1/2000 in PBS with 3% BSA and 1×Halt™ protease and phosphatase inhibitor cocktail) is added to the plate, followed by an incubation for 1 h at RT in the dark (plate sealed with aluminum seal). The plate is washed twice with high and low salt wash buffer (150 μL/well) and 100 μL/well of SuperSignal™ ELISA Pico Chemiluminescent Substrate (Thermo Fisher Scientific, Inc., Cat #37070)(premix part 1 and part 2, 1/1) is added. The plate is incubated for 4 min at RT before measuring luminescence on the Luminoskan™ Ascent (Thermo Fisher Scientific, Inc.) (PMT default voltage; 100 ms integration time). […]

T2 sequence (Q96RG2 with tags, fused parts or gaps): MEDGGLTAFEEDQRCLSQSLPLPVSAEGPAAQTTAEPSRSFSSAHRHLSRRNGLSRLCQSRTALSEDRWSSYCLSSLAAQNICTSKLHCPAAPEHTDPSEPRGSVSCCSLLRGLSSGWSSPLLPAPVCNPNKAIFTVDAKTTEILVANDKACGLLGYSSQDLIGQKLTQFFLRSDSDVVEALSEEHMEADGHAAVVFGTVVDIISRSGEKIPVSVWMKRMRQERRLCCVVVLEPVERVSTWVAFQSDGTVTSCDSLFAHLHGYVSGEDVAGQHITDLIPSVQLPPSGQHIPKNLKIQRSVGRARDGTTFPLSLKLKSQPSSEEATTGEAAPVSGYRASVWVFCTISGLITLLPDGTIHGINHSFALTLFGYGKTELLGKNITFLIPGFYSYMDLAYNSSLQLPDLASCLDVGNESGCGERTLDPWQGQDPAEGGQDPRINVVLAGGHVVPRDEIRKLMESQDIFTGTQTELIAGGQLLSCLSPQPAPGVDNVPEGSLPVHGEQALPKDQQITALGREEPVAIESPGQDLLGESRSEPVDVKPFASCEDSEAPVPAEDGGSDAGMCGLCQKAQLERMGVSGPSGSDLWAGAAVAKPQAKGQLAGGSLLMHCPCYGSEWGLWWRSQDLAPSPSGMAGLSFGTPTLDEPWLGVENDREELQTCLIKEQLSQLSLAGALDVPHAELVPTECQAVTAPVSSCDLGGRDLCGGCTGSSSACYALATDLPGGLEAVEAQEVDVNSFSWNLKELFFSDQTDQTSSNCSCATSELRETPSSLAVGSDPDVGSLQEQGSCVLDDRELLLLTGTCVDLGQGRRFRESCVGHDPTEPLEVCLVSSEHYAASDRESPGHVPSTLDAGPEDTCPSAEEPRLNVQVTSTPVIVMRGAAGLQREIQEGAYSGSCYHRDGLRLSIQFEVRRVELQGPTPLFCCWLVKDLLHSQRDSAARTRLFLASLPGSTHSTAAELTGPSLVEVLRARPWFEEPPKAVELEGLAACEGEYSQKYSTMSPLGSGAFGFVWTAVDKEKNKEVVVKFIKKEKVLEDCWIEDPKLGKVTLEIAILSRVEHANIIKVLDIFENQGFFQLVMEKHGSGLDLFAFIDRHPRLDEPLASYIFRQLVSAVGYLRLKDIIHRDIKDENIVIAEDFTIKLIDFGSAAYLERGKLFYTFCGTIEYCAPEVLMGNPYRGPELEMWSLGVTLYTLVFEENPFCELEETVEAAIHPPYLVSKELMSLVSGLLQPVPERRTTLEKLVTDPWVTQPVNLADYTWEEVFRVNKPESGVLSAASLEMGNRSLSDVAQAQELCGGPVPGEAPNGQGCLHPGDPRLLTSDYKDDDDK
T1 sequence (Q96RG2 whole entry): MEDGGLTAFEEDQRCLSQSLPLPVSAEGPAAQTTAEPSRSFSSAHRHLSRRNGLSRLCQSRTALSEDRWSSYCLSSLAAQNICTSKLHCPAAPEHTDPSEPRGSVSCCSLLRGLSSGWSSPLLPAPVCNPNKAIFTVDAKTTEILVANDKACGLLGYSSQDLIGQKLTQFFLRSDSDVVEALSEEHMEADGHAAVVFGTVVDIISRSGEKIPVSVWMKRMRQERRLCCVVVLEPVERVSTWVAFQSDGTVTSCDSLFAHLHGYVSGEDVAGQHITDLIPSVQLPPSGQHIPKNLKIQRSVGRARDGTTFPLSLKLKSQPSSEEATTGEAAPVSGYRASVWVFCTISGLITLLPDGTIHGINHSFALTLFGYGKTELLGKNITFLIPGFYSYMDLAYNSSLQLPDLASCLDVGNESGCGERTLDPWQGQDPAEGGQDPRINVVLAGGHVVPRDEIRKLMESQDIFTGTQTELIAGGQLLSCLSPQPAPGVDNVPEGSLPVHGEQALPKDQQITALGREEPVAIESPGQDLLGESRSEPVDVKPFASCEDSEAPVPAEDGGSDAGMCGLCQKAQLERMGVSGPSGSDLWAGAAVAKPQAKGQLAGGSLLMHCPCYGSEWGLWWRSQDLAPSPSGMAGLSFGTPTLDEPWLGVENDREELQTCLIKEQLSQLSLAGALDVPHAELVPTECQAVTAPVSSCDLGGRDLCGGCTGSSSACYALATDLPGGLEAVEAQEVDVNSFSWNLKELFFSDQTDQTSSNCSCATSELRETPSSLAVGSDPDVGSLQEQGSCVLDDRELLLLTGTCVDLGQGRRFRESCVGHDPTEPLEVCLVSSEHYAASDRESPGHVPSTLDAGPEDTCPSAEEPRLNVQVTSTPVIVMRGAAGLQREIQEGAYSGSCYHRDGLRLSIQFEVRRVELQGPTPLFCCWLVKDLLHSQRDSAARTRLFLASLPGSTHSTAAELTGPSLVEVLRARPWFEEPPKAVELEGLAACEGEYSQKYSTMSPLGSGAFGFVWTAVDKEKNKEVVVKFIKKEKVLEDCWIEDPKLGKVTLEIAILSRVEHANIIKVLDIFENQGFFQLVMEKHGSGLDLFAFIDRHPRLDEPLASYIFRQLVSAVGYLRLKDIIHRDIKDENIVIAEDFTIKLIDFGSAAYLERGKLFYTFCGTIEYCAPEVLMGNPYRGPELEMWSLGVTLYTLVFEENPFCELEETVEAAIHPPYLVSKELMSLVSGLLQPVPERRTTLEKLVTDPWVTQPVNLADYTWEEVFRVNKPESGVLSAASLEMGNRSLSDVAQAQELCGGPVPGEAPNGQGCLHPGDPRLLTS

By pIC50 is commonly meant the negative decadic logarithm of the IC50, by convention in mol/L. Consider `Cc1nn(CC(F)(F)F)c(C)c1-c1cnn2ccc(-c3cc(C(=O)O)co3)cc12` [Cpd 40, 5-[3-[3,5-dimethyl-1-(2,2,2-trifluoroethyl)pyrazol-4-yl]pyrazolo[1,5-a]pyridin-5-yl]furan-3-carboxylic acid], for which the pIC50 against human PASK [1] is 8.00 to 11.00; at human PASK [2], 8.00 to 11.00; in assay [3] it was 5.30 to 6.00.
On to `Cc1nn(C(F)F)c(C)c1-c1cnn2ccc(-c3cc(C(=O)O)co3)cc12` [Cpd 35, 5-[3-[1-(difluoromethyl)-3,5-dimethyl-pyrazol-4-yl]pyrazolo[1,5-a]pyridin-5-yl]furan-3-carboxylic acid], for which the pIC50 against human PASK [1] is 8.00 to 11.00; at human PASK [2], 8.00 to 11.00; in assay [3], 5.30 to 6.00.
As to `Cc1noc(C)c1-c1cnn2ccc(-c3cc(C(=O)O)c(C4CC4)o3)cc12` [Cpd 32, 2-cyclopropyl-5-[3-(3,5-dimethylisoxazol-4-yl)pyrazolo[1,5-a]pyridin-5-yl]furan-3-carboxylic acid], the pIC50 against human PASK [1] was 8.00 to 11.00; at human PASK [2], 8.00 to 11.00; in assay [3] it was 5.30 to 6.00.
Regarding `Cc1c(-c2cnn3ccc(-c4cc(C(=O)O)co4)cc23)c(C(F)(F)F)nn1C` [Cpd 23, 5-[3-[1,5-dimethyl-3-(trifluoromethyl)pyrazol-4-yl]pyrazolo[1,5-a]pyridin-5-yl]furan-3-carboxylic acid], the values for the negative-log IC50 (pIC50) (at human PASK [2]; in assay [3]) were 8.00 to 11.00 and 6.30 to 10.00, respectively.
For `COc1nn(-c2ccn3ncc(-c4c(C(F)(F)F)nn(C)c4C)c3c2)cc1C(=O)O` [Cpd 78, 1-[3-[1,5-dimethyl-3-(trifluoromethyl)pyrazol-4-yl]pyrazolo[1,5-a]pyridin-5-yl]-3-methoxy-pyrazole-4-carboxylic acid], the pIC50 was 8.00 to 11.00 at human PASK [1] and 5.30 to 6.00 in assay [3].
In the same order, the values of `CCn1nc(C)c(-c2cnn3ccc(-n4cc(C(N)=O)c(OC)n4)cc23)c1C` [Cpd 82, 1-[3-(1-ethyl-3,5-dimethyl-pyrazol-4-yl)pyrazolo[1,5-a]pyridin-5-yl]-3-methoxy-pyrazole-4-carboxamide] are 8.00 to 11.00 and below 5.30.
In the same order, the values of `COc1nc(-c2ccn3ncc(-c4c(C)nn(CC(F)(F)F)c4C)c3c2)sc1C(=O)O` [Cpd 77, 2-[3-[3,5-dimethyl-1-(2,2,2-trifluoroethyl)pyrazol-4-yl]pyrazolo[1,5-a]pyridin-5-yl]-4-methoxy-thiazole-5-carboxylic acid] are 8.00 to 11.00 and below 5.30.
For `Cc1nn(CC(F)(F)F)c(C)c1-c1cnn2ccc(-n3cc(C(=O)O)cn3)cc12` [Cpd 62, 1-[3-[3,5-dimethyl-1-(2,2,2-trifluoroethyl)pyrazol-4-yl]pyrazolo[1,5-a]pyridin-5-yl]pyrazole-4-carboxylic acid], in that order: 8.00 to 11.00 and below 5.30.
For `COc1nc(-c2ccn3ncc(-c4c(C)nn(C(C)C(F)(F)F)c4C)c3c2)sc1C(=O)O` (centres unmarked) [Cpd 85, 2-[3-[3,5-dimethyl-1-(2,2,2-trifluoro-1-methyl-ethyl)pyrazol-4-yl]pyrazolo[1,5-a]pyridin-5-yl]-4-methoxy-thiazole-5-carboxylic acid], the negative logarithm of the IC50 (pIC50) at human PASK [1] was 8.00 to 11.00; in assay [3], 5.30 to 6.00.
Consider `CCn1nc(C)c(-c2cnn3ccc(-c4nc(OC)c(C(=O)O)s4)cc23)c1C` [Cpd 84, 2-[3-(1-ethyl-3,5-dimethyl-pyrazol-4-yl)pyrazolo[1,5-a]pyridin-5-yl]-4-methoxy-thiazole-5-carboxylic acid], for which the pIC50 on human PASK [1] was 8.00 to 11.00; in assay [3] it was 5.30 to 6.00.
For `COc1nc(-c2ccn3ncc(-c4c(C)nn(C(C)C)c4C)c3c2)sc1C(=O)O` [Cpd 74, 2-[3-(1-isopropyl-3,5-dimethyl-pyrazol-4-yl)pyrazolo[1,5-a]pyridin-5-yl]-4-methoxy-thiazole-5-carboxylic acid], in that order: 8.00 to 11.00 and below 5.30.
For `Cc1nn(C)c(C)c1-c1cnn2ccc(-c3nc(OCC(F)(F)F)c(C(=O)O)s3)cc12` [Cpd 90, 4-(2,2,2-trifluoroethoxy)-2-[3-(1,3,5-trimethylpyrazol-4-yl)pyrazolo[1,5-a]pyridin-5-yl]thiazole-5-carboxylic acid], in that order: 8.00 to 11.00 and 6.00 to 6.30.
For `CCOc1nc(-c2ccn3ncc(-c4c(C)nn(CC)c4C)c3c2)sc1C(=O)O` [Cpd 64, 4-ethoxy-2-[3-(1-ethyl-3,5-dimethyl-pyrazol-4-yl)pyrazolo[1,5-a]pyridin-5-yl]thiazole-5-carboxylic acid], in that order: 8.00 to 11.00 and 6.30 to 10.00.
Consider `CCOc1nc(-c2ccn3ncc(-c4c(C)nn(CC(F)(F)F)c4C)c3c2)sc1C(=O)O` [Cpd 70, 2-[3-[3,5-dimethyl-1-(2,2,2-trifluoroethyl)pyrazol-4-yl]pyrazolo[1,5-a]pyridin-5-yl]-4-ethoxy-thiazole-5-carboxylic acid], for which the pIC50 on human PASK [1] is 8.00 to 11.00; in assay [3], 6.30 to 10.00.
Regarding `CCOc1nc(-c2ccn3ncc(-c4c(C)nn(C(C)C)c4C)c3c2)sc1C(=O)O` [Cpd 65, 4-ethoxy-2-[3-(1-isopropyl-3,5-dimethyl-pyrazol-4-yl)pyrazolo[1,5-a]pyridin-5-yl]thiazole-5-carboxylic acid], the pIC50 on human PASK [1] is 8.00 to 11.00; in assay [3], 6.30 to 10.00.
Turning to `Cc1nn(C(F)F)c(C)c1-c1cnn2ccc(-n3cc(C(=O)O)cn3)cc12` [Cpd 69, 1-[3-[1-(difluoromethyl)-3,5-dimethyl-pyrazol-4-yl]pyrazolo[1,5-a]pyridin-5-yl]pyrazole-4-carboxylic acid], the pIC50 was 8.00 to 11.00 against human PASK [1] and below 5.30 in assay [3].
